# US7465716B2, “Targeted drug delivery with a hyaluronan ligand” (The Regents of the University of California, priority 1999, dated 2008)
# Experiments:
# [1] = tested on: B16-F10 tumor nodules in the lung; experiment: Dose response on B16-F10 lung tumor nodules (Table 6); format: in vivo, C57/BI6 mice
# Protocol: In this experiment groups of 10 animals were inoculated with the tumor cells on day zero and treated with the various formulations on day 6 as described above. To keep the lipid concentration constant as the dose of liposome encapsulated drug was reduced, HAL-Dox formulations were diluted with empty DSPG liposome (HSPC:Chol:DSPG 60:40:9 mole ration) to maintain the total lipid concentration at 1 micromole.
# B16F10 lung tumors = experiment: Chemotherapy of mice with B16F10 lung tumors (Table 4); format: in vivo, C57/BL6 mice; details: treated day 6, counted day 14, N = 9; HAL-dox and POPG-dox at 8 mg/kg
# Protocol: The drug delivery systems of this invention can be tested in the B16F10 lung metastases model. The number of B16F10 tumor nodules was enumerated in the lung of syngeneic C57/BL6 mice 14days after intravenouss injection into the tail vein of 1×10^5, 3×10^5 and 1×10^6 B16F10 cells/mouse in a volume of 0.2 mL PBS. These cell numbers were used because they span the range reported to give a countable number of nodules in previous investigations. The animals were sacrificed and the lungs were removed 14 days post inoculation of B16F10 cells, and then fixed in Bouin's solution. The visible tumor nodules were assessed and counted under dissecting microscope. N=9 per group. The dose of 3×10^5 cells/mouse yielded a suitable number of nodules to provide an adequate statistical analysis. […] The distribution of hyaluronanliposomes in B16F10 tumorial mice was measured on day 14 after innoculation. […] The animals (n=7) were sacrificed 3 hours after injection, the organs removed, the lungs were fixed in Bouin's solution and the radioactivity in each organ determined by gamma scintillation spectroscopy (Table 3).
# The chemotherapeutic efficacy of doxorubicin delivered in various forms in the B16F10 lung tumor model was compared by counting the nodules on day 14 after innoculation of mice with B16F10. […] The animals were sacrificed and tumor nodules: counted on day 14. […]
# [2] = tested on: B16-F10 tumor nodules in the lung; experiment: Effect of liposome composition on B16-F10 lung tumor nodules (Table 5); format: in vivo, C57/BI6 mice; details: Doxorubicin 3 mg/kg on day 6, 10 mice/group
# Protocol: As shown above, the presence of the targeting hyaluronan lipid, the type of lipid anchor that the hyaluronan was attached to and the lipid composition of the targeted liposomes influenced the anti-tumor effect. In this example, doxorubicin was encapsulated in liposomes of different compositions (described below in the liposome preparation) and injected into C57/BI6 mice at a dose of 3 mg/kg on day 6 after the mice had received the B16-F10 tumor as described above.
# A specific, non-limiting example of doxorubicin loaded lipsome preparation involves thin lipid film hydration followed by sonication and extrusion. Briefly, the lipid components were weighed and dissolved in chloroform at the desired molar ratio(POPC:Chol:HA4-POPE:aT 60:40:3:0.1; POPC:Chol:POPG:aT 60:40:9:0.1; HSPC:Chol:PEG-DSPE:aT 56.2:38.3:5.3:0.1; HSPC:Chol:DPPG:aT 56.2:38.3:5.3:0.1; HSPC:Chol:HA4-DPPE:aT 56.2:38.3:5.3:0.1). […] Phospholipid concentration was determined by a phosphorous assay. DOX concentrations were determined by measurement of absorbance at 480 nm (using a molar coefficient=12,500) after solubilization of the liposomes in 90% isopropyl alcohol containing 0.075 M HCl. […] For both POPC and HSPC liposomes, mean vesicle diameter as measured by dynamic light scattering using the multimodal program was 120-150 nm (SD<35% of the mean) with a monodisperse particle size distribution. […]
# CV-1 cells = experiment: Chemosensitivity assay (SRB staining), CV-1 cells; format: cell-based, monkey; details: compared with B16F10 cells / free DOX
# Excerpt: FIGS. 5A and 5B show the DOX dose dependence cytotoxicity determined after treatment of B16F10 and CV-1 cells with non-encapsulated DOX and DOX-loaded HAL. […] To examine the specificity of the HAL we treated CV-1 cells with the three formulations. CV-1 cells express a very low level of CD44. […] Furthermore, the cytotoxicity of both the HAL and POPG liposomes was. similar, confirming the low interaction of the liposomes with CV-1 cells.
# The cytotoxic effect of free DOX or Liposomes-encapsulated DOX on the cells was assayed colorimetrically by the sulforhodamine B (SRB) staining. A sample containing 16,000 B16F10 or 25,000 CV-1 cells (from an exponentially growing culture) in 100 μl aliquots were plated onto 96-well flat bottom microtiter plates. The culture plates were incubated for 24 hours at 37° C. and 5% CO2 and then the medium in each well was replaced with 100 μl serum-free and antibiotic-free medium containing various concentration of free or liposome-encapsulated DOX. For each 10-fold increase in drug concentration, four drug concentration levels were tested. […] The cultures were incubated at 4° C. for 1 h and then washed and analyzed for SRB staining of the monolayers as described. The measurement of the absorbance of the SRB at 564 nm in the monolayers was determined by an Optimax microplate reader (Molecular Devices, Sunnyvale, Calif.). […]
# [3] = 0.3 mg/kg, HAL-Dox = HAL-DPPE encapsulated Dox
# [4] = 1 mg/kg, HAL-Dox = HAL-DPPE encapsulated Dox
# [5] = 3 mg/kg, HAL-Dox = HAL-DPPE encapsulated Dox
# [6] = 10 mg/kg, treated day 6, groups of 10
smiles,measurement,setting,value
"COc1cccc2c1C(=O)c1c(O)c3c(c(O)c1C2=O)C[C@@](O)(C(=O)CO)C[C@@H]3O[C@H]1C[C@H](N)[C@H](O)[C@H](C)O1 [free DOX, Doxorubicin]",# nodules Mean,[1]; [3],248.1 ± 56.9
same,# nodules Median,[1]; [3],250.5
same,# nodules Mean,[1]; [4],265.9 ± 34.5
same,# nodules Median,[1]; [4],277
same,# nodules Mean,[1]; [5],208.2 ± 82.1
same,# nodules Median,[1]; [5],191
same,# nodules Mean,[1]; [6],157.9 ± 70.6
same,# nodules Median,[1]; [6],151
same,# nodules Mean,B16F10 lung tumors,56.11 ± 49.48
same,# nodules Median,B16F10 lung tumors,45
same,# nodules Mean,[2],171.60 ± 71.79
same,# nodules Median,[2],179
same,cytotoxicity to CV-1 cells (in words),CV-1 cells,significantly lower
